Data reported in patent US12642790B2, “Drug combination for treating obesity” (The Curators of the University of Missouri, priority 2022, dated 2026).

What was measured:
[1] = administration of mirabegron; cited from earlier work
[2] = test system: white adipose tissue; conditions: obese human individuals; cited from earlier work
[3] = test system: UCP1; assay: Western blot of UCP1 protein in inguinal subcutaneous adipose tissue of diet-induced obese WT and ERβDBDKO mice; format: in vivo; conditions: daily injections of CL for two weeks; ERβDBDKO vs WT diet-induced obese mice; GxT p=0.017; FIG. 1C
Source text: (§1) Inguinal subcutaneous adipose tissue was harvested from diet-induced obese male and female wild-type (WT) and estrogen receptor beta (ERβ) DNA-binding domain (DBD) knock-out (ERβDBDKO) mice that were given daily injections of CL316,243 (CL), a beta3 adrenergic receptor (B3AR) ligand, for two weeks. ERβDBDKO mice express a mutated form of ERβ that lacks genomic activity by genetic ablation of the DBD, however still retain non-classical (i.e., non-genomic) signaling through ERβ. Protein was then isolated from the adipose tissue using Thermo Scientific™ RIPA lysis and extraction buffer, quantified using BCA method, then 10 ug was separated on a 4-20% SDS-PAGE gel followed by transfer to polyvinylidene difluoride membranes using BioRad Trans-Turbo Blot system. […] Images were captured on a ChemiDoc Imaging System (BioRad, Hercules, CA), band intensity was quantified using ImageLab software (BioRad), then ERβ and UCP1 protein expression was quantified relative to beta actin.
(§2) FIG. 1A is a Western blot showing the levels of ERβ and UPC1 in WT and ERβDBDKO (“KO”) mice, in the presence and absence of CL316243 (“CL”). The blot in FIG. 1A was scanned to quantify the band intensity, and the data used to graph the relative protein fold change for ERβ (FIG. 1B) and UCP-1 (FIG. 1C).

[4] = test system: ERβ; assay: Western blot of ERβ protein in inguinal subcutaneous adipose tissue of diet-induced obese WT and ERβDBDKO mice; format: in vivo; conditions: daily injections of CL for two weeks; ERβDBDKO vs WT diet-induced obese mice; GxT p<0.001; FIG. 1B
Source text: as §1, §2

[5] = test system: UCP1; assay: ucp1 mRNA induction in primary adipocytes by qRT-PCR; format: cell-based; conditions: primary adipocytes from male C57BL6J mice; 1 uM CL with 1 uM PHTPP or 10 nM DPN; 24 hours; compared to CL alone; FIG. 4
Protocol: To test the hypothesis in vitro, that inhibition of genomic activity of ERβ would enhance the effectiveness of the […], CL316,243 (CL) to induce expression of the mitochondrial UCP1, primary adipocytes were treated with the following: (a) CL, (b) diarylpropionitrile (DPN) (i.e., ligand known to promote classical genomic functions of ERβ), (c) 4-(2-phenyl-5,7-bis(trifluoromethyl)pyrazolo[1,5-a]pyrimidin-3-yl)phenol (PHTPP) (i.e., ligand known to suppress classical genomic functions of ERβ), (d) CL+DPN, and (e) CL+PHTPP. Briefly, perigonadal and subcutaneous WAT was harvested from male C57BL6J mice, digested in collagenase to isolate stromal vascular cells then cultured in Dulbecco's modified eagle medium/nutrient mixture F12 media supplemented with 10% fetal bovine serum, 1% GlutaMax, 0.1% gentamicin and 0.05% insulin at 37° C. and 5% CO2. Adipocyte differentiation was induced by supplementing media with 0.5 mM 3-isobutyl-1-methylxanithin, 1 uM dexamethasone, and […] for 48 hours. 14 days post induction, primary adipocytes were treated with either 1 uM CL, 10 nM DPN, 1 uM PHTPP or a combination of ligands as outlined above. After 24 hours treatment, ucp1 mRNA induction was measured using qRT-PCR. […] Ucp1 mRNA expression is expressed as 2^ΔCT where ΔCT=housekeeping CT−Ucp1 CT and presented as fold difference relative to control (CTRL). […]

## Nc1nc(CC(=O)Nc2ccc(CCNC[C@H](O)c3ccccc3)cc2)cs1 [mirabegron]
[1]
  side effects: may result in hypertension, nasopharyngitis, tachycardia, headaches, urinary tract infections, upper respiratory tract infections, constipation, abdominal pain, and fatigue
[2]
  white adipose tissue dysfunction: reduced white adipose tissue dysfunction

## C[C@H](Cc1ccc2c(c1)OC(C(=O)[O-])(C(=O)[O-])O2)NC[C@H](O)c1cccc(Cl)c1.[Na+].[Na+] [CL]
[3]
  UCP1 protein content (relative to beta actin): increases UCP1 protein content in ERβDBDKO mice more so than in WT mice
[4]
  ERβ protein content in WAT (relative to beta actin): increases ERβ protein content in WAT to a greater level in ERβDBDKO mice compared to WT

## Oc1ccc(-c2c(-c3ccccc3)nn3c(C(F)(F)F)cc(C(F)(F)F)nc23)cc1 [PHTPP, 4-(2-phenyl-5,7-bis(trifluoromethyl)pyrazolo[1,5-a]pyrimidin-3-yl)phenol]
[5]
  Ucp1 mRNA expression, fold difference relative to control: increases the CL-mediated induction of UCP1
